Results published in PubChem BioAssay (NCI).
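All cell lines were grown in 96-well plates and treated with compound for 48 hours. TGI: concentration producing complete growth inhibition.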

What was measured:
Assay in all cases: growth of human tumour cells (NCI), 48 h
[1] = test system: HCC-2998 colon
[2] = test system: SF-268 CNS
[3] = test system: SNB-75 CNS
[4] = test system: U251 CNS
[5] = test system: 786-0 renal
[6] = test system: CAKI-1 renal
[7] = test system: LOX IMVI melanoma
[8] = test system: UACC-257 melanoma
[9] = test system: IGROV1 ovarian
[10] = test system: SN12C renal
[11] = test system: SK-MEL-28 melanoma
[12] = test system: ACHN renal
[13] = test system: SF-295 CNS
[14] = test system: SK-OV-3 ovarian
[15] = test system: T-47D breast
[16] = test system: TK-10 renal
[17] = test system: SF-539 CNS
[18] = test system: OVCAR-3 ovarian
[19] = test system: SNB-19 CNS
[20] = test system: RPMI-8226 leukemia

Measured: TGI

CCOC(=O)C(/C=N\C(=S)Nc1ccc(Cl)c(Cl)c1)=C(/O)c1ccccc1
84.9 µM: [6]
60.4 µM: [1]
55.9 µM: [3]
not listed: [16] | [17] | [18] | [19] | [20]
> 100 µM: all other assays above

CCN1CCN(c2ccc(Nc3ccnc4ccc5c(nnn5C)c34)cc2)CC1
23.1 µM: [2]
19 µM: [4]
16 µM: [10]
23.9 µM: [11]
38.3 µM: [15]
11.5 µM: [12]
30.5 µM: [3]
21.7 µM: [6]
11.1 µM: [17]
26.1 µM: [8]
15.1 µM: [19]
22.7 µM: [13]
32.6 µM: [9]
15.9 µM: [5]
13.1 µM: [7]
6.94 µM: [1]
32.2 µM: [14]
18.9 µM: [18]
45.6 µM: [16]

c1ccc2c(c1)nc1n2CCCn2ccnc2-1
9.03 µM: [14]
not listed: [1] | [6] | [8] | [16]
> 100 µM: all other assays above

CC(=O)OCC1OC(n2c(-c3ccccc3)c(C(C)=O)c(-c3ccc(Cl)cc3)c(C#N)c2=S)C(OC(C)=O)C(OC(C)=O)C1OC(C)=O (configuration not stated)
not listed: [20]
> 100 µM: all other assays above

COC(=O)c1ccccc1C1CN=NC12Cc1ccc(C)c(C)c1C2=O (configuration not stated)
not listed: [20]
> 100 µM: all other assays above

COc1ccc(-c2c(=O)[nH]n3c(=S)nc(-c4ccccc4)[nH]c23)cc1OC
54 µM: [3]
51.6 µM: [6]
37 µM: [7]
51.4 µM: [13]
> 100 µM: [2]
36.1 µM: [1]
58.5 µM: [4]
42.6 µM: [15]
54.7 µM: [11]
56.7 µM: [9]
33.9 µM: [5]
55.9 µM: [14]
28.5 µM: [19]
51.1 µM: [12]
53.1 µM: [16]
37.3 µM: [10]
61.1 µM: [8]

N=C(N)N1CCC(N2CCOCC2)CC1
not listed: [6] | [7] | [18]
> 100 µM: all other assays above

CC(OC(C)(C)C)[C@H](NC(=O)OC(C)(C)C)C(=O)O (some centres not stated)
not listed: [3] | [11]
> 100 µM: all other assays above

Cn1nc2ccc3nccc(N4CCN(CCO)CC4)c3c2n1
not listed: [6] | [7] | [17] | [20]
> 100 µM: all other assays above

CC(C)=NN/C(=N\S(=O)(=O)c1ccc(C)cc1)Nc1ccc(Cl)cc1
not listed: [1] | [3] | [14] | [17]
> 100 µM: all other assays above
